According to patent US20080206219A1, “Novel Indications for Transforming Growth Factor-Beta Regulators” (THE REGENCTS OF THE UNIVERSITY OF CALIFORNIA, priority 2003, published 2008):

Legend:
Assay type in all cases: in vivo
[1] = system: Collα1(I)+/+ and Collα1(I)r/r mice; assay: Miles assay: Evans blue leakage in ears after mustard oil challenge; conditions: for Evans blue staining of ears following MO exposure: 5% mustard oil in mineral oil
Experimental: Evans blue (EB) dye (30 mg/kg in 100 μl PBS; Sigma-Aldrich) was injected into the tail vein of 7- to 8-week-old mice. In some experiments, after 1-min, 30 μl of 5% mustard oil (Phenyl Isothiocyanate, 98%, Sigma-Aldrich) diluted in mineral oil (Sigma-Aldrich) was applied to the dorsal and ventral surfaces of the ear; the application process was repeated 15 minutes later. Isoflurane anesthesized mice were photographed 30 minutes after injection of EB dye. Anesthesized mice were then cardiac perfused, ears removed, blotted dry and weighed. EB dye was extracted from ears in 1 ml of formamide overnight to 48-hrs at 60° C. and measured spectrophotometrically at 610 nm in a SpectraMax 340™ (Molecular Devices). Data are expressed as mean±SEM. Comparisons of the amounts of dye extravasation were evaluated by Mann-Whitney statistical test with p values less than 0.05 considered significant. In some experiments, 5-min prior to the infusion of EB dye, shaved 5-to 7-week old mice were injected (10 μl) intradermally with one of the following agents at the concentrations shown (VEGF120, R&D Systems; VEGF164, Chemicon; histamine, Calbiochem; serotonin, Sigma-Aldrich) and the appearance of a blue spot monitored for 30 minutes at which time mice were euthanized, cardiac perfused, photographed and the area of skin surrounding the site of injection excised (˜5 mm^2), photographed and EB dye extracted as above. […]
The vascular physiology in a mouse model of human Sc, e.g., Collα1(I)^r/r mice, was studied to determine whether an altered balance between collagen synthesis, accumulation and/or degradation was a rate-limiting factor for efficient vascular physiology prior to histopathologic appearance of Sc disease. The ears of Collα1(I)^r/r versus littermate control (Collα1(I)^+/+) mice were treated with vehicle alone (mineral oil; FIG. 1A) or mustard oil (MO; 5% in mineral oil: right ear), an inflammatory agent that induces plasma leakage, vasodilation of capillaries and inflammation in the skin (FIG. 1A). Evans blue dye (30 mg/kg in 100 μl PBS; Sigma Chemical Co., St. Louis, Mo., USA) was injected into the tail vein of the mice. After 1 minute, 5% mustard oil (Phenyl Isothiocyanate, 98%, Sigma) diluted in mineral oil (Sigma) was applied to the dorsal and ventral surfaces of the ear with a cotton swab; the application process was repeated 15 minutes later. […] Isoflurane anesthesized mice were photographed 30 minutes after injection of Evans blue dye. Anesthesized mice were then cardiac perfused, ears removed, blotted dry, and weighed. The Evans blue dye was extracted from the ears with 1 ml of formamide overnight at 60° C. and measured spectrophotometrically at 610 nm in a SpectraMax 340™ (Molecular Devices). Data are expressed as mean±SEM. Comparisons of the amounts of dye extravasation were evaluated by the Fisher's t test with p values less than 0.05 considered significant.
Vascular permeability (VP) responses in control and Collα1(I)^r/r mice treated with a broad spectrum synthetic metalloproteinase inhibitor (MPI), e.g., GM6001 were examined. GM6001 (N-[(2R)-2(hydroxyamidocarbonylmethyl)-4-methylpantanoyl]-L-tryptophan ethylamide), a broad, class-specific metalloproteinase inhibitor (Chemicon, Temecula Calif.), was administered daily i.p. at 100 mg/kg body weight as a 20 mg/ml slurry in 4% carboxymethylcellulose in 0.9% PBS daily for 3-days. Controls were treated with a daily injection of 4% carboxymethylcellulose in PBS. The animals were then subject to cutaneous challenge with MO and qualitative and quantitative assessment of Evans blue dye leakage into vascular stroma (FIG. 5A).

[2] = system: control and Collα1(I)r/r mice; assay: Fluorescent angiography of whole mounted ears after mustard oil
[3] = system: control and Collα1(I)r/r mice; assay: Modified Miles assay: intradermal injection of permeability-inducing agents; conditions: for Evans blue leakage response after intradermal injection: Collα1(I)r/r mice versus control mice, all concentrations tested; for leakage of Evans blue dye into stroma after intradermal injection: control mice, increasing concentrations
Experimental: Evans blue (EB) dye (30 mg/kg in 100 μl PBS; Sigma-Aldrich) was injected into the tail vein of 7- to 8-week-old mice. In some experiments, after 1-min, 30 μl of 5% mustard oil (Phenyl Isothiocyanate, 98%, Sigma-Aldrich) diluted in mineral oil (Sigma-Aldrich) was applied to the dorsal and ventral surfaces of the ear; the application process was repeated 15 minutes later. Isoflurane anesthesized mice were photographed 30 minutes after injection of EB dye. Anesthesized mice were then cardiac perfused, ears removed, blotted dry and weighed. EB dye was extracted from ears in 1 ml of formamide overnight to 48-hrs at 60° C. and measured spectrophotometrically at 610 nm in a SpectraMax 340™ (Molecular Devices). Data are expressed as mean±SEM. Comparisons of the amounts of dye extravasation were evaluated by Mann-Whitney statistical test with p values less than 0.05 considered significant. In some experiments, 5-min prior to the infusion of EB dye, shaved 5-to 7-week old mice were injected (10 μl) intradermally with one of the following agents at the concentrations shown (VEGF120, R&D Systems; VEGF164, Chemicon; histamine, Calbiochem; serotonin, Sigma-Aldrich) and the appearance of a blue spot monitored for 30 minutes at which time mice were euthanized, cardiac perfused, photographed and the area of skin surrounding the site of injection excised (˜5 mm^2), photographed and EB dye extracted as above.
The vascular leakage in control and Collα1(I)^r/r mice following intradermal injection of other agents known to induce vascular leakage, e.g., VEGFA120, VEGFA164 and serotonin (versus vehicle alone), by interacting with distinct cell surface receptors, e.g., VEGF receptor-2 (VEGFR2) and serotonin receptors, respectively (FIG. 3A) were assessed. 5 min prior to the infusion of Evans blue dye, shaved 5-to 7-week old mice were injected (10 μl) intradermally with VEGF120 (R&D Systems) VEGF164 (Chemicon; histamine, Calbiochem) serotonin (Sigma) TIMP-1 (Oncogene Research Products, San Diego Calif.) and the appearance of a blue spot monitored for 30 minutes at which time mice were euthanized, cardiac perfused, photographed and the area of skin surrounding the site of injection excised (˜5 mm^2), photographed and Evans blue dye extracted as above.

[4] = target: T1, VEGFR2 (Mus musculus, UniProt P35918); assay: VEGFR2 phosphorylation, IP-western of tissue lysates after intradermal VEGF164; conditions: control and Collα1(I)r/r mice; VEGF164 10 ng i.d.
T1 construct: tissue lysates were subjected to immunoprecipitation with anti-VEGFR2 antibodies; from tissue; host or cells: mouse skin after intradermal VEGF164 or BSA
Experimental: VEGFR2: Tissue pieces (5 mm^2) from animals were collected from ears or following shaving of back skin or following injection (i.d.) of 10 μl 10 ng VEGF164 or 0.1% BSA in PBS. Tissues were pulverized in liquid N2 followed by lysis in ice-cold buffer containing 20 mM Tris, pH 7.6, 150 mM NaCl, 1 mM EDTA, 50 mM NaF, 1% triton X-100, 0.5% Na-deoxycholate, 0.1% SDS, 2 mM Na2VO4, 10 μg/ml aprotinin, 1 mM phenylmethylsulfonylfluoride and centrifuged at 10,000 rpm for 30-min at 4° C. The supernatants were recentrifuged at 10,000 rpm for 30-min at 4° C. Lysates were then incubated in a slurry of heparin-Sepharose CL-6B (Pharmacia) and incubated overnight rocking at 4C, centrifugation and equilibrated to 150 mM NaCl. Protein was dialyzed against PBS and quantified using the BioRad protein assay system (BioRad). Before immunoprecipitation, BSA was added to the pre-cleared lysates to 0.5%. Equal amounts of protein (1 mg) from lysates were used for immunopreciptations and Western blotting. […]
Following intradermal injection of VEGF164 (10 ng), tissue lysates were subjected to immunoprecipitation with anti-VEGFR2 antibodies, followed by SDS-PAGE electrophoreses of immune complexes and western blot analysis with anti phospho-tyrosine and anti-VEGFR2 antibodies (FIG. 3B). […] Protein was dialyzed against PBS and quantified using the BioRad protein assay system (BioRad, Hercules, Calif.). […]

T1 sequence (P35918 20-1345): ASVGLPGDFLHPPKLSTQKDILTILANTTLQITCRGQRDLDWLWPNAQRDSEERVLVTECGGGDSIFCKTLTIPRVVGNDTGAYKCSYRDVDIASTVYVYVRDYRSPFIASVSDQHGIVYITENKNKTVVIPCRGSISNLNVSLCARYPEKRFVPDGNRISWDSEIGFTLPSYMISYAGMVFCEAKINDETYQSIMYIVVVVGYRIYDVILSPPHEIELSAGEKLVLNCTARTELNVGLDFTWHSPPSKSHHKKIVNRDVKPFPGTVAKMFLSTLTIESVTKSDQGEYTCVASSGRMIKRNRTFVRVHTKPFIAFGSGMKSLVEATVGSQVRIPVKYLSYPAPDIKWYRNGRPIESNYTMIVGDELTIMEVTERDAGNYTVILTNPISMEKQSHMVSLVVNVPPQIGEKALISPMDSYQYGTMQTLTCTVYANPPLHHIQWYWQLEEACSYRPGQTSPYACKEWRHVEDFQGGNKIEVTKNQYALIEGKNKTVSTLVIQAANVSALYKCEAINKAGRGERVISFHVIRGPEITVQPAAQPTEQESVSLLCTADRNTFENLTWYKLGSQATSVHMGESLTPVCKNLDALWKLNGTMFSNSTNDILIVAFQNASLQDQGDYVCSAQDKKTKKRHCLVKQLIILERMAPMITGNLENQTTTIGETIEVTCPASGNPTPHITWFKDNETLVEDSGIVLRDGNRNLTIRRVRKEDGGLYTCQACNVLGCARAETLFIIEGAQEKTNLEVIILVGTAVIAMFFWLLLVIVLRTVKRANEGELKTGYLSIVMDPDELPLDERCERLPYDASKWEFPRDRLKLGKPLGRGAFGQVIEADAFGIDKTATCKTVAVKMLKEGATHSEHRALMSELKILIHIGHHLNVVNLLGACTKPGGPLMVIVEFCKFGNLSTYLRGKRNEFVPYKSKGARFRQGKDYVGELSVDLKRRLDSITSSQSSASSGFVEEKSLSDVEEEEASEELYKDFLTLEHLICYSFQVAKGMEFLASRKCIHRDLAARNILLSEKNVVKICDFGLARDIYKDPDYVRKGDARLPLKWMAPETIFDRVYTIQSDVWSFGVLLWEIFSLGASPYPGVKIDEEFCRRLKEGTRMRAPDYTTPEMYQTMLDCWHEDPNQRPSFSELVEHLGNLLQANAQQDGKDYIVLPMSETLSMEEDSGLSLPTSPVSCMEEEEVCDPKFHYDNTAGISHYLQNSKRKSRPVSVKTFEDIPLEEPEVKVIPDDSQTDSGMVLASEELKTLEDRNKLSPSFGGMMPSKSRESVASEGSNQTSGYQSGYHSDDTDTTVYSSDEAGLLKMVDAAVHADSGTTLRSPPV

Molecule | amount of Evans blue leaked in response to MO, lower than in control animals ([1]; Collα1(I)r/r mice versus controls, p=0.0002) | Evans blue staining of ears following MO exposure ([1]; Collα1(I)r/r mice) | Evans blue staining of ears following MO exposure ([1]; littermate control mice) | total vascular area after MO versus vehicle ([2]; Collα1(I)r/r mice) | vasodilation of macrovasculature (vessel diameter) after MO ([2]; Collα1(I)r/r mice) | vasodilation of macrovasculature (vessel diameter) after MO ([2]; control mice) | total vascular area after MO versus vehicle ([2]; control mice, p<0.04) | Evans blue leakage response after intradermal injection [3] | leakage of Evans blue dye into stroma after intradermal injection [3] | phosphorylation of VEGFR2 following exposure to VEGF [4]
S=C=Nc1ccccc1 [MO, Phenyl Isothiocyanate] | ~50% | remained pale with only a modest hint of blue | moderately blue | unchanged | not observed | increased vasodilation of macrovasculature | significant increase in total vascular area |  |  | 
NCCc1c[nH]c2ccc(O)cc12 [serotonin] |  |  |  |  |  |  |  | significantly inhibited | significant leakage | 
VEGFA164: VEGF164 (Chemicon), agent known to induce vascular leakage via VEGFR2 (protein) APTTEGEQKSHEVIKFMDVYQRSYCRPIETLVDIFQEYPDEIEYIFKPSCVPLMRCAGCCNDEALECVPTSESNITMQIMRIKPHQSQHIGEMSFLQHSRCECRPKKDRTKPENHCEPCSERRKHLFVQDPQTCKCSCKNTDSRCKARQLELNERTCRCDKPRR |  |  |  |  |  |  |  | significantly inhibited | significant leakage | similarly increased levels of phosphorylation
